The source made the active and inactive calls. How the calls were made is not given here.
Tested on: rodent lifetime carcinogenesis bioassay, tumor incidence TD50
Assay: carcinogenic potency in animals, long-term in vivo studies, CPDB compilation (AID 1745844)

ClC(Cl)=C(Cl)Cl
TD50 (mouse, strain B6C3F1, females, by gavage, site: any site (literature study), lesion: several types, types named in the paper, dosed 78 weeks, study length 90 weeks): 98.1 mg/kg/day
TD50 (mouse, strain B6C3F1, females, by gavage, site: liver, lesion: hepatocellular adenoma + hepatocellular carcinoma + neoplastic nodule, dosed 78 weeks, study length 90 weeks): 75.6 mg/kg/day
TD50 (mouse, strain B6C3F1, females, by gavage, site: liver, lesion: hepatocellular carcinoma, dosed 78 weeks, study length 90 weeks): 75.6 mg/kg/day
TD50 (mouse, strain B6C3F1, females, by gavage, site: lung, lesion: alveolar/bronchiolar adenoma + alveolar/bronchiolar carcinoma, dosed 78 weeks, study length 90 weeks): 2950 mg/kg/day
TD50 (mouse, strain B6C3F1, females, inhaled, site: any site (literature study), lesion: several types, types named in the paper, dosed 103 weeks, study length 104 weeks): 211 mg/kg/day
TD50 (mouse, strain B6C3F1, females, inhaled, site: liver, lesion: hepatocellular adenoma + hepatocellular carcinoma + neoplastic nodule, dosed 103 weeks, study length 104 weeks): 188 mg/kg/day
TD50 (mouse, strain B6C3F1, females, inhaled, site: liver, lesion: hepatocellular adenoma + hepatocellular carcinoma, dosed 103 weeks, study length 104 weeks): 188 mg/kg/day
TD50 (mouse, strain B6C3F1, females, inhaled, site: liver, lesion: hepatocellular carcinoma, dosed 103 weeks, study length 104 weeks): 200 mg/kg/day
TD50 (mouse, strain B6C3F1, males, by gavage, site: any site (literature study), lesion: several types, types named in the paper, dosed 78 weeks, study length 90 weeks): 160 mg/kg/day
TD50 (mouse, strain B6C3F1, males, by gavage, site: liver, lesion: hepatocellular adenoma + hepatocellular carcinoma + neoplastic nodule, dosed 78 weeks, study length 90 weeks): 123 mg/kg/day
TD50 (mouse, strain B6C3F1, males, by gavage, site: liver, lesion: hepatocellular carcinoma, dosed 78 weeks, study length 90 weeks): 123 mg/kg/day
TD50 (mouse, strain B6C3F1, males, inhaled, site: any site (literature study), lesion: several types, types named in the paper, dosed 103 weeks, study length 104 weeks): 225 mg/kg/day
TD50 (mouse, strain B6C3F1, males, inhaled, site: liver, lesion: hepatocellular adenoma + hepatocellular carcinoma + neoplastic nodule, dosed 103 weeks, study length 104 weeks): 190 mg/kg/day
TD50 (mouse, strain B6C3F1, males, inhaled, site: liver, lesion: hepatocellular adenoma + hepatocellular carcinoma, dosed 103 weeks, study length 104 weeks): 190 mg/kg/day
TD50 (mouse, strain B6C3F1, males, inhaled, site: liver, lesion: hepatocellular adenoma, dosed 103 weeks, study length 104 weeks): 668 mg/kg/day
TD50 (mouse, strain B6C3F1, males, inhaled, site: liver, lesion: hepatocellular carcinoma, dosed 103 weeks, study length 104 weeks): 162 mg/kg/day
TD50 (mouse, strain B6C3F1, males, inhaled, site: lung, lesion: alveolar/bronchiolar adenoma + alveolar/bronchiolar carcinoma, dosed 103 weeks, study length 104 weeks): 6050 mg/kg/day
TD50 (mouse, strain B6C3F1, males, inhaled, site: mesenteric lymph node + multiple organs + spleen + subcutaneous tissue, lesion: malignant lymphoma, NOS, dosed 103 weeks, study length 104 weeks): 681 mg/kg/day
TD50 (mouse, strain Crj:BDF1, females, inhaled, site: liver, lesion: hepatocellular adenoma, dosed 104 weeks, study length 104 weeks): 560 mg/kg/day
TD50 (mouse, strain Crj:BDF1, females, inhaled, site: liver, lesion: hepatocellular carcinoma, dosed 104 weeks, study length 104 weeks): 1420 mg/kg/day
TD50 (mouse, strain Crj:BDF1, females, inhaled, site: liver, lesion: several types, types named in the paper, dosed 104 weeks, study length 104 weeks): 396 mg/kg/day
TD50 (mouse, strain Crj:BDF1, males, inhaled, site: Harderian gland, lesion: adenoma, dosed 104 weeks, study length 104 weeks): 2330 mg/kg/day
TD50 (mouse, strain Crj:BDF1, males, inhaled, site: liver, lesion: hepatocellular adenoma, dosed 104 weeks, study length 104 weeks): 602 mg/kg/day
TD50 (mouse, strain Crj:BDF1, males, inhaled, site: liver, lesion: hepatocellular carcinoma, dosed 104 weeks, study length 104 weeks): 555 mg/kg/day
TD50 (mouse, strain Crj:BDF1, males, inhaled, site: liver, lesion: several types, types named in the paper, dosed 104 weeks, study length 104 weeks): 257 mg/kg/day
TD50 (rat, strain F344/DuCrj, females, inhaled, site: spleen, lesion: mononuclear-cell leukemia, dosed 104 weeks, study length 104 weeks): 1080 mg/kg/day
TD50 (rat, strain F344/DuCrj, males, inhaled, site: liver, lesion: hepatocellular adenoma, dosed 104 weeks, study length 104 weeks): 28300 mg/kg/day
TD50 (rat, strain F344/DuCrj, males, inhaled, site: spleen, lesion: mononuclear-cell leukemia, dosed 104 weeks, study length 104 weeks): 257 mg/kg/day
TD50 (rat, strain Fischer 344, females, inhaled, site: any site (literature study), lesion: several types, types named in the paper, dosed 103 weeks, study length 104 weeks): 869 mg/kg/day
TD50 (rat, strain Fischer 344, females, inhaled, site: multiple organs + spleen, lesion: mononuclear-cell leukemia, dosed 103 weeks, study length 104 weeks): 287 mg/kg/day
TD50 (rat, strain Fischer 344, males, inhaled, site: any site (literature study), lesion: several types, types named in the paper, dosed 103 weeks, study length 104 weeks): 77.7 mg/kg/day
TD50 (rat, strain Fischer 344, males, inhaled, site: kidney + liver + multiple organs + spleen, lesion: tubular-cell adenoma + tubular-cell adenocarcinoma + mononuclear-cell leukemia, dosed 103 weeks, study length 104 weeks): 90.8 mg/kg/day
TD50 (rat, strain Fischer 344, males, inhaled, site: kidney, lesion: tubular-cell adenoma + tubular-cell adenocarcinoma, dosed 103 weeks, study length 104 weeks): 504 mg/kg/day
TD50 (rat, strain Fischer 344, males, inhaled, site: liver + multiple organs + spleen, lesion: mononuclear-cell leukemia, dosed 103 weeks, study length 104 weeks): 101 mg/kg/day
TD50 (rat, strain Fischer 344, males, inhaled, site: liver, lesion: hepatocellular adenoma + hepatocellular carcinoma + neoplastic nodule, dosed 103 weeks, study length 104 weeks): 368 mg/kg/day
TD50 (rat, strain Fischer 344, males, inhaled, site: testis, lesion: interstitial-cell tumor, dosed 103 weeks, study length 104 weeks): 68.6 mg/kg/day
TD50 (rat, strain Osborne-Mendel, females, by gavage, site: any site (literature study), lesion: several types, types named in the paper, dosed 78 weeks, study length 110 weeks): 1710 mg/kg/day
TD50 (rat, strain Osborne-Mendel, males, by gavage, site: any site (literature study), lesion: several types, types named in the paper, dosed 78 weeks, study length 112 weeks): 3020 mg/kg/day

O=[As](O)(O)O
TD50 (monkey, strain Cynomolgus [Macaca fascicularis], both sexes, in feed, site: any site (literature study), lesion: benign tumor, dosed 735 weeks, study length 735 weeks): 0.169 mg/kg/day
TD50 (monkey, strain Cynomolgus [Macaca fascicularis], both sexes, in feed, site: kidney cortex, lesion: adenoma, dosed 735 weeks, study length 735 weeks): 0.029 mg/kg/day
carcinogen call (rat, strain Osborne-Mendel, both sexes, in feed, site: any site (literature study), lesion: malignant tumor, dosed 104 weeks, study length 104 weeks): negative (inactive)
carcinogen call (rat, strain Osborne-Mendel, both sexes, in feed, site: any site (literature study), lesion: several types, types named in the paper, dosed 104 weeks, study length 104 weeks): negative (inactive)

CNC[C@H](O)c1ccc(O)c(O)c1
TD50 (mouse, strain B6C3F1, females, inhaled, site: liver, lesion: hepatocellular adenoma + hepatocellular carcinoma + neoplastic nodule, dosed 104 weeks, study length 107 weeks): 9.74 mg/kg/day
TD50 (mouse, strain B6C3F1, females, inhaled, site: uterus, lesion: endometrial stromal polyp + endometrial stromal sarcoma, dosed 104 weeks, study length 107 weeks): 6.86 mg/kg/day
TD50 (mouse, strain B6C3F1, females, inhaled, site: uterus, lesion: endometrial stromal polyp, dosed 104 weeks, study length 107 weeks): 8.52 mg/kg/day
TD50 (rat, strain Fischer 344, males, inhaled, site: any site (literature study), lesion: several types, types named in the paper, dosed 103 weeks, study length 105 weeks): 4.7 mg/kg/day
